Patent publication US9988380B2, “Quorum sensing inhibitors” (priority 2013, dated 2018)

Test system: LasR-controlled GFP expression in P. aeruginosa PAO1 lasB-gfp(ASV) strain
Assay: P. aeruginosa QS inhibition assay with lasB-gfp(ASV) reporter strain
Assay type: cell-based, Pseudomonas aeruginosa
Experimental: P. aeruginosa QS inhibition assays. Test compounds were dissolved in 100% DMSO and mixed with ABTGC media, after which they were added to the first column of wells of a 96-well microtitre plate (Nunc) to give a final concentration of 100 μM in a final volume of 200 μl. 100 μL of ABTGC media was then added to the remaining wells in the plate and serial two-fold dilutions of the inhibitors were done by adding 100 μL of the preceding inhibitor-containing well to the subsequent one. The final column was left without inhibitor as a control. Next, an overnight culture of P. aeruginosa lasB-gfp(ASV) strain, grown in LB medium at 37° C. with shaking, was diluted to an optical density (OD) at 600 nm of 0.2, and 100 μl of bacterial suspension was added to each well of the microtitre plate. […] The microtitre plate was incubated at 37° C. in a Tecan Infinite 200 Pro plate reader (Tecan Group Ltd., Männedorf, Switzerland). GFP fluorescence (excitation at 485 nm, emission at 535 nm) and cell density (OD600) measurements were collected at 15 min intervals for at least 14 h. The P. aeruginosa Rhl and Pqs inhibition assays were performed in a similar manner to the LasR inhibition assay.
Inhibition Assay with the P. aeruginosa lasB-gfp(ASV) strain. In the preliminary screen, the 22 selected QSI candidates were screened for their ability to inhibit QS-controlled green fluorescent protein (GFP) expression in the P. aeruginosa lasB-gfp(ASV) strain. Elastase (encoded by the lasB gene) is a virulence factor that is controlled by LasR and therefore a good indicator for LasR activity. […] For ease of identification, each compound was designated a short compound identification code based on its well position in the shipment in place of its standard IUPAC name.
The dose-response curves of these 5 QSI candidates when incubated with the P. aeruginosa PAO1 lasB-gfp(ASV) strain are shown in FIG. 3. GFP expression, which was measured in relative fluorescence units, was normalized by dividing the GFP value by the corresponding OD600 value measured at that time-point. ‘Control’ refers to the PAO1 strain grown without the presence of QSI, and as expected, it had the highest GFP per OD values. For these five compounds, dose-dependent inhibition of lasB-gfp expression was observed, i.e. the higher the concentration of QSI that was present, the greater the inhibition of gfp expression.
IC50 Value Comparisons of the Five QSI Candidates. The slope of the curve for each QSI was calculated based on its respective dose-response curves (from FIG. 3) and plotted against the log inhibitor concentration. The slope is indicative of the biosynthesis rate of GFP due to AHL induction. The half maximal inhibitory concentrations (IC50) of the five QSI candidates were calculated using the Graphpad Prism 6 software package (GraphPad Software Inc., CA, USA).

## N=c1[nH]c(=O)c2nn[nH]c2[nH]1 [Compound G1, 5-imino-4,6-dihydro-3H-1,2,3-triazolo[5,4-d]pyrimidin-7-one]
P. aeruginosa PAO1 lasB-gfp(ASV)
  IC50 of lasB-gfp expression, range in words: high nanomolar range
P. aeruginosa lasB-gfp(ASV) strain, OD600
  effect on cell growth: without affecting cell growth
P. aeruginosa lasB-gfp(ASV) strain, 0.78125-50 μM
  inhibition of LasR-controlled GFP expression: inhibit LasR-controlled GFP expression in a dose-dependent manner
Pseudomonas aeruginosa, PAO1, read-out: IC50 of lasB-gfp expression
  IC50: 640 nM
